Legend:
Experiment in all cases: Yeast two-hybrid (Y2H) screen
Format in all cases: binding, A. thaliana
CAT2, catalase 2 = conditions: bait AtPNP-A amino acids 26–130, prey At4g35090.1
Method: (§1) The Y2H screen using AtPNP-A as bait was carried out by Dualsystems Biotech AG (Zurich, Switzerland). The bait construct for the screening was made by subcloning the cDNA fragment encoding exported portion of AtPNP-A (amino acids 26 to 130) (Fig. 1a) into the pLexA-DIR vector (Dualsystems Biotech AG). The bait construct was transformed into the strain NMY32 (MATa his3Δ200 trp1-901 leu2-3,112 (lexAop)8-ADE2 LYS2::(lexAop)4-HIS3 URA3::(lexAop)8-lacZ GAL4) using standard procedures. Correct expression of the bait was verified by western blotting of cell extracts using a mouse monoclonal antibody directed against the LexA domain (Dualsystems Biotech AG). The absence of self-activation was verified by co-transformation of the bait together with a control prey and selection on minimal medium lacking tryptophan, leucine, and histidine (selective medium). For the Y2H screen, the bait was co-transformed together with a normalized A. thaliana universal P02403 cDNA library (Dualsystems Biotech AG) into NMY32. 3.1 × 10^6 transformants were screened, yielding 96 transformants that grew on selective medium. […] Library plasmids were isolated from positive clones. The identity of positive interactants was determined by sequencing. DNA sequences translated in all three reading frames and searching against the SwissProt database using the BLASTX algorithm (https://blast.ncbi.nlm.nih.gov).

[1] = tested on: CRF6, cytokinin response factor 6; conditions: bait AtPNP-A amino acids 26–130, prey At3g61630.1
Method: as §1

Expr, expansin-like B1 = conditions: bait AtPNP-A amino acids 26–130, prey At4g17030.1
Method: as §1

Unknown protein = conditions: bait AtPNP-A amino acids 26–130, prey At5g39570.1
Method: as §1

Measured: Strength of binding

AtPNP-A: An A. thaliana PNP, termed AtPNP-A (At2g18660; Q9ZV52)
Weak: all assays above
